A word on the IC50: it is the concentration that gives 50% inhibition.

In BindingDB's records for doi:10.1016/j.bmcl.2019.126886 (Tokyo University of Agriculture, 2020) one finds IC50 data, which are given here for one molecule.

This assay is described as follows: Inhibition of PKCbeta in rat RBL2H3 cells assessed as inhibition of mouse anti-DNP IgE-stimulated beta-hexosaminidase release preincubated for 15 mins followed by mouse anti-DNP IgE stimulation and measured after 3 hrs by 4-nitropheny1-2-acetamide-2-deoxy-beta-glucopyranoside substrate based colorimetric method.

Regarding `O=C1O/C(=C(/C(=O)O)c2ccc(O)c(O)c2)C(O)=C1c1ccc(O)c(O)c1`, the IC50 turned out to be 10.4 µM.
